Assay results reported in patent publication US20210277015A1, “OGA INHIBITOR COMPOUNDS” (Janssen Pharmaceutica NV, priority 2018, published 2021).

Assays:
OGA = molecular target: T1, OGA (Homo sapiens, UniProt O60502); test: OGA cellular assay (ICC detection of O-GlcNAcylated proteins in HEK293 cells inducible for P301L mutant human Tau); format: cell-based; conditions: for Cellular Emax (%) / Emax: maximum defined by Thiamet G at 200 uM; for EC50: read-out: Cellular hOGA, pEC50 (converted); for Emax: HEK293, HEK293 cells inducible for P301L mutant human Tau
T1 construct: endogenous in cells; host or cells: HEK293 cells inducible for P301L mutant human Tau (isoform 2N4R)
T1 sequence (O60502 1-916): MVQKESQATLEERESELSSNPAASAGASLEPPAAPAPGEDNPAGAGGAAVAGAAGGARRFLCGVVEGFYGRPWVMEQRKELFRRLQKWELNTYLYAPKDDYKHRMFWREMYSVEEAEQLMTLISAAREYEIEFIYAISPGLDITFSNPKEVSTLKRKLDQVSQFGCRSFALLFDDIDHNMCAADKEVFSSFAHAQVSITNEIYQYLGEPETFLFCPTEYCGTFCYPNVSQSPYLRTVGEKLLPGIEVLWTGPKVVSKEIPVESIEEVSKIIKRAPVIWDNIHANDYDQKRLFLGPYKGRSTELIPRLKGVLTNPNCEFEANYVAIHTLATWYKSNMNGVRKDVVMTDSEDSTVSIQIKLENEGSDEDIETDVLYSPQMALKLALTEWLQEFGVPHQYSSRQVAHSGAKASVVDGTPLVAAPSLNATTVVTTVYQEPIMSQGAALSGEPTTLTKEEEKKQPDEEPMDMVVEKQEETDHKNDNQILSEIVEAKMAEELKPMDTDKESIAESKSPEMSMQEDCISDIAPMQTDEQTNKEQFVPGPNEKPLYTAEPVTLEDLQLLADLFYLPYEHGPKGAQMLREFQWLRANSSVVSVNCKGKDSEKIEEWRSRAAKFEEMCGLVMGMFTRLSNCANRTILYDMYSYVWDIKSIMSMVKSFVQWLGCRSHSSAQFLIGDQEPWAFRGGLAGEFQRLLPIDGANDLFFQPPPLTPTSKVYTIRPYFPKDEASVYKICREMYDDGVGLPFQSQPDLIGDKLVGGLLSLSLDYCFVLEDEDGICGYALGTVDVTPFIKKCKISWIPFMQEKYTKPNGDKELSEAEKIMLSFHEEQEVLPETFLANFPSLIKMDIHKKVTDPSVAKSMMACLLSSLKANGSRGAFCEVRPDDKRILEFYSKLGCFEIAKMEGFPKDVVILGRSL
Procedure: HEK293 cells inducible for P301L mutant human Tau (isoform 2N4R) were established at Janssen. Thiamet-G was used for both plate validation (high control) and as reference compound (reference EC50 assay validation). OGA inhibition is evaluated through the immunocytochemical (ICC) detection of O-GlcNAcylated proteins by the use of a monoclonal antibody (CTD110.6; Cell Signaling, #9875) detecting O-GlcNAcylated residues as previously described (Dorfmueller et al. 2010 Chemistry & biology, 17:1250). Inhibition of OGA will result in an increase of O-GlcNAcylated protein levels resulting in an increased signal in the experiment. Cell nuclei are stained with Hoechst to give a cell culture quality control and a rough estimate of immediate compounds toxicity, if any. ICC pictures are imaged with a Perkin Elmer Opera Phenix plate microscope and quantified with the provided software Perkin Elmer Harmony 4.1.
Cells were propagated in DMEM high Glucose (Sigma, #D5796) following standard procedures. 2 days before the cell assay cells are split, counted and seeded in Poly-D-Lysine (PDL) coated 96-wells (Greiner, #655946) plate at a cell density of 12,000 cells per cm^2 (4,000 cells per well) in 100 μl of Assay Medium (Low Glucose medium is used to reduce basal levels of GlcNAcylation) (Park et al. 2014 The Journal of biological chemistry 289:13519). At the day of compound test medium from assay plates was removed and replenished with 90 μl of fresh Assay Medium. 10 μl of compounds at a 10 fold final concentration were added to the wells. Plates were centrifuged shortly before incubation in the cell incubator for 6 hours. DMSO concentration was set to 0.2%. Medium is discarded by applying vacuum. For staining of cells medium was removed and cells washed once with 100 μl D-PBS (Sigma, #D8537). From next step onwards unless other stated assay volume was always 50 μl and incubation was performed without agitation and at room temperature. Cells were fixed in 50 μl of a 4% paraformaldehyde (PFA, Alpha aesar, #043368) PBS solution for 15 minutes at room temperature. […] Before analysis samples were washed 2 times manually for 5 minutes in ICC base buffer.
Imaging is performed using Perkin Elmer Phenix Opera using a water 20× objective and recording 9 fields per well. Intensity readout at 488 nm is used as a measure of O-GlcNAcylation level of total proteins in wells. To assess potential toxicity of compounds nuclei were counted using the Hoechst staining. IC50-values are calculated using parametric non-linear regression model fitting. As a maximum inhibition Thiamet G at a 200 uM concentration is present on each plate. In addition, a concentration response of Thiamet G is calculated on each plate.

[1] = molecular target: T2, recombinant human Meningioma Expressed Antigen 5 (MGEA5), also referred to as O-GlcNAcase (OGA) (Homo sapiens, UniProt O60502); test: OGA biochemical assay (inhibition of FM-GlcNAc hydrolysis, fluorescence); conditions: FM-GlcNAc substrate; for IC50: 6 h at room temperature, read-out: Enzymatic hOGA, pIC50 (converted); for Enzymatic Emax (%) / Emax: maximal effect; for Emax: read-out: Enzymatic Emax (%)
T2 construct: Full length OGA enzyme was purchased at OriGene (cat #TP322411); purchased OriGene TP322411
T2 sequence (O60502 1-916): T1 sequence (O60502 1-916)
Procedure, shortened: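 Full-length human OGA (2 nM) pre-incubated 60 min at room temperature with compound, then FM-GlcNAc (100 µM final) added in citrate/phosphate buffer pH 7.2 with 0.005% Tween-20; 6 h at room temperature, stopped with carbonate pH 11.0. Fluorescein read at 485/538 nm; IC50 and Hill coefficient from curve fit.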

[2] = HEK293 cells inducible for P301L mutant human Tau, 6 hours incubation, ICC O-GlcNAcylation
[3] = HEK293 cells inducible for P301L mutant human Tau

Row | SMILES | Cellular hOGA; pEC50 (OGA; [2]) | Cellular Emax (%) (OGA; [3]) | IC50 [1] [µM] | Enzymatic Emax (%) [1] [%] | EC50 (OGA; [2]) [µM] | Emax [1] [%] | Emax (OGA) [%]
1 | Cc1cc(OC[C@]2(C)CCN([C@H](C)c3ccc4c(n3)OCCO4)C2)cc(C)n1 (single isomer, unassigned) [Product 103] | <6 | −5 | > 10 | 29 |  |  | 
2 | Cc1cc(C[C@@H]2CCN([C@H](C)c3ccc4c(n3)OCCO4)C2)cc(C)n1 (single isomer, unassigned) [Product 104] |  | 51 | 0.0631 |  | 0.631 | 100 | 
3 | Cc1cc(C[C@@H]2CCN([C@H](C)c3ccc4c(n3)OCCO4)C2)cc(C)n1 (single isomer, unassigned) [Product 105] |  | 6 | 0.794 | 91 | > 1 |  | 
4 | COc1cc(C[C@@H]2CCN([C@H](C)c3ccc4c(n3)OCCO4)C2)cc(C)n1 (single isomer, unassigned) [Product 106] |  | 47 | 0.0794 |  |  | 100 | 
5 | COc1cc(C[C@@H]2CCN([C@H](C)c3ccc4c(n3)OCCO4)C2)cc(C)n1 (single isomer, unassigned) [Product 107] |  | −6 | 1.26 | 90 | > 1 |  | 
6 | COc1cc(C[C@H]2CN([C@H](C)c3ccc4c(n3)OCCO4)C[C@@H]2C)cc(C)n1 (stereo in doubt) [Product 121] |  |  | 0.0501 |  | > 1 | 99 | 47
7 | COc1cc(C[C@@H]2CN([C@H](C)c3ccc4c(n3)OCCO4)C[C@H]2C)cc(C)n1 (stereo in doubt) [Product 122] |  |  |  |  | > 1 | 49 | -7
8 | COc1cc(C[C@H]2CN([C@@H](C)c3ccc4c(n3)OCCO4)C[C@@H]2C)cc(C)n1 (stereo in doubt) [Product 123] |  |  | 0.126 |  | ~1 | 100 | 47
9 | COc1cc(C[C@@H]2CN([C@@H](C)c3ccc4c(n3)OCCO4)C[C@H]2C)cc(C)n1 (stereo in doubt) [Product 124] |  |  | > 10 |  | > 1 | 40 | -3
10 | Cc1cc(C[C@H]2CCN(C(C)c3ccc4c(n3)OCCO4)C2)cc(C(F)(F)F)n1 (stereo partly shown) [Product 5] |  |  | 0.126 |  |  | 100 | 45
11 | Cc1cc(C[C@H]2CCN(C(C)c3ccc4c(c3)OCC4)C2)cc(C(F)(F)F)n1 (stereo partly shown) [Product 6] |  |  | 0.0794 |  | > 1 | 103 | 47
12 | Cc1cc(C[C@H]2CCN(C(C)c3cc4c(cc3F)OCCO4)C2)cc(C(F)(F)F)n1 (stereo partly shown) [Product 7] |  |  | 0.02 |  | 0.398 | 102 | 79
13 | COc1cc(C[C@H]2CCN(C(C)c3ccc4c(c3)OCC4)C2)cc(C)n1 (stereo partly shown) [Product 8] |  |  | 0.126 |  | 0.794 | 101 | 58
14 | COc1cc(C[C@H]2CCN(C(C)c3nc4c(cc3F)OCCO4)C2)cc(C)n1 (stereo partly shown) [Product 16] |  |  | 0.02 |  | 0.126 | 102 | 89
15 | Cc1cc(O[C@@H]2CCN(C(C)c3nc4c(cc3F)CCO4)C2)cc(C)n1 (stereo partly shown) [Product 17] |  |  | 0.00251 |  | 0.02 | 101 | 77
16 | COc1cc(C[C@H]2CCN(C(C)c3cnc4c(c3)OCCN4)C2)cc(C)n1 (stereo partly shown) [Product 20] |  |  | 0.0794 |  | 0.501 | 101 | 61
17 | Cc1cc(C[C@H]2CCN([C@@H](C)c3cc4c(cc3F)OCCO4)C2)cc(C)n1 [Product 32] |  |  | 0.0158 |  | 0.126 | 101 | 72
18 | Cc1cc(C[C@@H]2CCN(C(C)c3ccc4c(n3)OCCO4)C2)nc(C)n1 (stereo partly shown) [Product 37] |  |  | 0.251 |  | > 1 | 96 | 14
19 | Cc1cc(O[C@@H]2CCN(C(C)c3nc4c(cc3F)OCCO4)C2)cc(C)n1 (stereo partly shown) [Product 38] |  |  | 0.02 |  | 0.316 | 98 | 69
